Measurements as given in patent US20100189675A1, “COSMETIC USE OF AN IMIDOPERCARBOXYLIC ACID DERIVATIVE AS DESQUAMATING AGENT” (L'Oreal, priority 2007, published 2010).

Tested on: corneocytes
Experiment: In vitro test of desquamating efficacy (corneocytes liberated, expressed as protein concentration)
Type: cell-based
Procedure: An in vitro test was carried out in order to determine the efficacy of phthalimidoperoxycaproic acid compared with a composition comprising 30% of glycolic acid and 70% of water. The number of corneocytes liberated is expressed as protein concentration. After applying a composition comprising 17% of phthalimidoperoxycaproic acid, the protein concentration is about 320 μg/ml, while it is about 210 μg/ml for the composition comprising glycolic acid.

Structure (SMILES)	number of corneocytes liberated expressed as protein concentration (composition comprising 30% of glycolic acid and 70% of water)	number of corneocytes liberated expressed as protein concentration (after applying a composition comprising 17% of phthalimidoperoxycaproic acid)	desquamating efficacy compared with reference (compared with glycolic acid (AG) at 30%)
O=C(O)CO [glycolic acid, reference compound]	about 210 μg/ml	–	–
O=C(CCCCCN1C(=O)c2ccccc2C1=O)OO [phthalimidoperoxycaproic acid]	–	about 320 μg/ml	high desquamating efficacy greater than the reference glycolic acid
